# T1: FXR (Homo sapiens, UniProt Q96RI1)
# T1 construct: expressed in transfected cells; host or cells: HEK293T
# T1 sequence (Q96RI1 1-486): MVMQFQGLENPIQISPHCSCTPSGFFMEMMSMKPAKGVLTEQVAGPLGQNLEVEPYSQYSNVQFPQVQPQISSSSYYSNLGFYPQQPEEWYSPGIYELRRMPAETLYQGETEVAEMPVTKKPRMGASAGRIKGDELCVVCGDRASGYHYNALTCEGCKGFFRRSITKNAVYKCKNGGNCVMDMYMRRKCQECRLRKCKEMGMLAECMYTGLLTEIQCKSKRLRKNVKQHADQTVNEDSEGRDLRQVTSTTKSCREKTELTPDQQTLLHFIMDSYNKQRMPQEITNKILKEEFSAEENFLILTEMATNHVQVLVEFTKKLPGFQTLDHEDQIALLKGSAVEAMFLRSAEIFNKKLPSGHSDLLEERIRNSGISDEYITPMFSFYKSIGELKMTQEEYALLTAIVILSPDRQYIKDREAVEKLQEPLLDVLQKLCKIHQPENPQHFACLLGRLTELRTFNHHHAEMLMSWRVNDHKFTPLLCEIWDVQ
# T1 sequence (P19793 1-462 partner): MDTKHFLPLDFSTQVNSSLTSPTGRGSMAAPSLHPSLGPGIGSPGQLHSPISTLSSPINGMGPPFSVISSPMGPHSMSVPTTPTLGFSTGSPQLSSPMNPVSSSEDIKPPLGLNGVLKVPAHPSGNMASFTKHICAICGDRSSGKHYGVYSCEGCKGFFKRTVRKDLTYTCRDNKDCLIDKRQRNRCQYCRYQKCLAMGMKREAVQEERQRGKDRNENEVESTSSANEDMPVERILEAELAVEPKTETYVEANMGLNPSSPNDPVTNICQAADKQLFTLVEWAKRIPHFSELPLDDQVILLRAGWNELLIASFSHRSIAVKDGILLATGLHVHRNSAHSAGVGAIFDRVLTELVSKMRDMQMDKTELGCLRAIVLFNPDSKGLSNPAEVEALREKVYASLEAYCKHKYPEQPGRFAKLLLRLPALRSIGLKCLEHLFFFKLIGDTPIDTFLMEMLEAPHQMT
# B1: hCES2A (Homo sapiens) (protein)
# chain: QDSASPIRTTHTGQVLGSLVHVKGANAGVQTFLGIPFAKPPLGPLRFAPPEPPESWSGVRDGTTHPAMCLQDLTAVESEFLSQFNMTFPSDSMSEDCLYLSIYTPAHSHEGSNLPVMVWIHGGALVFGMASLYDGSMLAALENVVVVIIQYRLGVLGFFSTGDKHATGNWGYLDQVAALRWVQQNIAHFGGNPDRVTIFGESAGGTSVSSLVVSPISQGLFHGAIMESGVALLPGLIASSADVISTVVANLSACDQVDSEALVGCLRGKSKEEILAINKPFKMIPGVVDGVFLPRHPQELLASADFQPVPSIVGVNNNEFGWLIPKVMRIYDTQKEMDREASQAALQKMLTLLMLPPTFGDLLREEYIGDNGDPQTLQAQFQEMMADSMFVIPALQVAHFQCSRAPVYFYEFQHQPSWLKNIRPPHMKADHGDELPFVFRSFFGGNYIKFTEEEEQLSRKMMKYWANFARNGNPNGEGLPHWPLFDQEEQYLQLNLQPAVGRALKAHRLQFWKKALPQKIQELEEPEERHTEL
# notes: 10xHis; made in house; host or cells: HEK293-F cells, pTT5 vector, purified from conditioned medium
# B2: hCES1A (Homo sapiens) (protein)
# chain: GHPSSPPVVDTVHGKVLGKFVSLEGFAQPVAIFLGIPFAKPPLGPLRFTPPQPAEPWSFVKNATSYPPMCTQDPKAGQLLSELFTNRKENIPLKLSEDCLYLNIYTPADLTKKNRLPVMVWIHGGGLMVGAASTYDGLALAAHENVVVVTIQYRLGIWGFFSTGDEHSRGNWGHLDQVAALRWVQDNIASFGGNPGSVTIFGESAGGESVSVLVLSPLAKNLFHRAISESGVALTSVLVKKGDVKPLAEQIAITAGCKTTTSAVMVHCLRQKTEEELLETTLKMKFLSLDLQGDPRESQPLLGTVIDGMLLLKTPEELQAERNFHTVPYMVGINKQEFGWLIPMQLMSYPLSEGQLDQKTAMSLLWKSYPLVCIAKELIPEATEKYLGGTDDTVKKKDLFLDLIADVMFGVPSVIVARNHRDAGAPTYMYEFQYRPSFSSDMKPKTVIGDHGDELFSVFGAPFLKEGASEEEIRLSKMVMKFWANFARNGNPNGEGLPHWPEYNQKEGYLQIGANTQAAQKLKDKEVAFWTNLFAKKAVEKPPQTE
# notes: as for B1
# How the values were obtained:
# FXR = molecular target: T1, FXR; experiment: FXR transcriptional activation, Dual-Luciferase Reporter Assay in HEK293T cells; type: cell-based
# Experimental: The phFXR, phRXR (retinoid X receptor) and FXR-dependent reporter (EcRE-LUC) were expressed and cotransfected with the Gal4 reporter vector MH100 × 4-TK-Luc, then 1 μg of the relevant plasmid was combined with 1 μg of reporter plasmids and 0.1 μg of pREP7 (Renilla Luciferase) reporter, which was used to normalize transfection efficiencies. HEK293T cells were dispensed into 96 well plates using a volume of 100 μL and 1 × 10^5 cells per well.
# [1] = set-up: method as in Liu et al. (2022); details: oral administration of Qingfei Paidu Decoction, ref Liu et al. (2022); cited from earlier work
# AB23A hydrolysis in HIMs = experiment: Chemical inhibition assay of AB23A hydrolysis in HIMs; type: biochemical, human; details: BNPP 50 μM, LPA 100 μM
# AB23A hydrolysis in HLMs = experiment: Chemical inhibition assay of AB23A hydrolysis in HLMs; type: biochemical, human; details: HLMs 0.1 mg/mL, AB23A 20 μM, 1 h; BNPP 50 μM, LPA 100 μM, GA 100 μM, boceprevir 20 μM, EDTA 20 μM
# Experimental: (§1) The inhibitory effects of a series of selective inhibitors of human hydrolases against AB23A hydrolysis were assessed. The selective inhibitors of human hydrolases including BNPP (50 μM, a specific inactivator of CES), boceprevir (20 μM, a potent inhibitor for CTSA), LPA (100 μM, a selective inhibitor for CES2A), GA (100 μM, a cholinesterase inhibitor), EDTA (20 μM, a selective PONs inhibitor). The incubation system included PBS, inhibitors, HLMs (0.1 mg/mL)/human plasma (25% dilution), and AB23A (20 μM). After reacting for 1 h, ice-cold acetonitrile was used to terminate the reaction. The supernatants by centrifuging were used to quantify the formation rates of AB by LC-UV analysis.
# [2] = system: AB23A hydrolysis in human plasma; experiment: Chemical inhibition assay of AB23A hydrolysis in human plasma; type: biochemical; details: human plasma 25% dilution, AB23A 20 μM, 1 h; GA 100 μM, boceprevir 20 μM, EDTA 20 μM
# Experimental: as §1
# [3] = system: T2, CC(=O)O[C@H](C[C@@H](C)C1=C2C[C@H](O)C3[C@@]4(C)CCC(=O)C(C)(C)C4CC[C@]3(C)[C@@]2(C)CC1)[C@H]1OC1(C)C; experiment: Kinetic analysis of AB23A hydrolysis in hSA; type: in vitro ADME, human; details: other: hSA
# T2 construct: purchased Sigma-Aldrich Lot#SLCC9268
# Experimental: (§2) The enzymatic kinetics of AB23A hydrolysis in different tissue preparations (HLMs, HIMs, human plasma) and human recombinant enzymes (hCES1A, hCES2A, hSA, hBchE) were analyzed. The incubation system (200 μL) consisted of PBS, each tested enzyme, and AB23A (ranging from 0 to 1,000 μM). After incubating for 1 h, the supernatants were then used for LC-UV analysis. The kinetic parameters of AB23A hydrolysis were fitted by the following Michaelis−Menten Eq. 1 ([Zhang et al., 2022]). V=(Vmax×[S])⁄(Km+[S]) (1) Here, K m is the Michaelis constant of AB23A hydrolysis, V max is the maximum velocity of AB23A hydrolysis, V max /K m is used to calculate the intrinsic clearance (CL int ).
# [4] = substrate: CC(=O)O[C@H](C[C@@H](C)C1=C2C[C@H](O)C3[C@@]4(C)CCC(=O)C(C)(C)C4CC[C@]3(C)[C@@]2(C)CC1)[C@H]1OC1(C)C; experiment: Kinetic analysis of AB23A hydrolysis in hCES2A; type: in vitro ADME, human; details: other: hCES2A
# Experimental: as §2
# [5] = substrate: CC(=O)O[C@H](C[C@@H](C)C1=C2C[C@H](O)C3[C@@]4(C)CCC(=O)C(C)(C)C4CC[C@]3(C)[C@@]2(C)CC1)[C@H]1OC1(C)C; experiment: Kinetic analysis of AB23A hydrolysis in hCES1A; type: in vitro ADME, human; details: other: hCES1A
# Experimental: as §2
molecule,measurement,setting,value
"C[C@H](C[C@H](O)[C@H]1OC1(C)C)C1=C2C[C@H](O)[C@H]3[C@@]4(C)CCC(=O)C(C)(C)[C@@H]4CC[C@]3(C)[C@@]2(C)CC1 [AB, alisol B]",FXR agonist effect (transcriptional activation),"FXR; HEK293T cells, 5, 10, 20 μM, 48 h, GW4064 (10 μM) set at 100%",dose-dependently agonize FXR
same,FXR activation compared with AB23A,"FXR; HEK293T cells, low doses (5 and 10 μM)",slightly more potent than AB23A
same,Detection in mice plasma and liver,[1],readily detected
"O=[N+]([O-])c1ccc(OP(=O)(O)Oc2ccc([N+](=O)[O-])cc2)cc1 [BNPP, bis(p-nitrophenyl) phosphate]",Effect on formation of AB (AB23A hydrolysis) in HIMs,AB23A hydrolysis in HIMs,near-completely inhibited
same,Effect on AB23A hydrolysis in HLMs,AB23A hydrolysis in HLMs,completely blocked
"O=C(O)CN(CCN(CC(=O)O)CC(=O)O)CC(=O)O [EDTA, Ethylenediaminetetraacetic acid]",Effect on AB23A hydrolysis in HLMs,AB23A hydrolysis in HLMs,negligible effects
same,Effect on formation of AB (AB23A hydrolysis) in human plasma,[2],negligible effects
"COc1ccc2c3c1O[C@H]1C[C@@H](O)C=C[C@@]31CCN(C)C2 [GA, galanthamine]",Effect on AB23A hydrolysis in HLMs,AB23A hydrolysis in HLMs,slightly blocked
same,Effect on formation of AB (AB23A hydrolysis) in human plasma,[2],significantly inhibit
"CN(C)C(=O)C(CCN1CCC(O)(c2ccc(Cl)cc2)CC1)(c1ccccc1)c1ccccc1 [LPA, Loperamide]",Effect on formation of AB (AB23A hydrolysis) in HIMs,AB23A hydrolysis in HIMs,partially inhibit
same,Effect on AB23A hydrolysis in HLMs,AB23A hydrolysis in HLMs,slightly blocked
"CC(C)(C)NC(=O)N[C@H](C(=O)N1C[C@H]2[C@@H]([C@H]1C(=O)NC(CC1CCC1)C(=O)C(N)=O)C2(C)C)C(C)(C)C (stereo partly shown) [boceprevir, Boceprevir]",Effect on AB23A hydrolysis in HLMs,AB23A hydrolysis in HLMs,negligible effects
same,Effect on formation of AB (AB23A hydrolysis) in human plasma,[2],negligible effects
hSA (Homo sapiens),Vmax,[3],0.0004 µmol/min/mg
same,Vmax/Km,[3],1.53 µL/min/mg
B1,Vmax,[4],0.0125 µmol/min/mg
same,Vmax/Km,[4],212 µL/min/mg
B2,Vmax,[5],0.0235 µmol/min/mg
same,Vmax/Km,[5],123 µL/min/mg
